Measurements as given in EP4741394A1, “CRYSTAL FORM OF [1,2,4]TRIAZOLO[4,3-B]PYRIDAZINE COMPOUND, AND PREPARATION METHOD THEREFOR AND USE THEREOF” (Beijing Pearl Biotechnology Limited Liability Company, priority 2023, dated 2025).

Key:
Format in all cases: physicochemical
[1] = Solid dispersion by hot-melt extrusion with Povidone K30: content of related substance D1 and of active ingredient; conditions: for Content of related substance D1 in starting material: before hot-melt extrusion, Not detected: detected content < 0.0045%; for Content of active pharmaceutical ingredient in sample / Content of related substance D1 in sample: solid dispersion, Povidone K30 1:3, hot-melt extrusion up to 200 °C
Excerpt: Under the same hot-melt extrusion conditions, the contents of related substance D1 in the solid dispersions prepared from the crystal forms A (prepared according to the preparation method 1 of Example 1) and B (prepared according to the preparation method of Example 2) were investigated, respectively. The structure of the related substance D1 is represented by formula (II). [drawing 4]
Preparation of solid dispersion by hot-melt extrusion: the active pharmaceutical ingredient of crystal form A (prepared according to the preparation method 1 of Example 1) or B (prepared according to the method of Example 2) and Povidone K30 were weighed respectively and then evenly mixed at a ratio of 1:3; after the temperature of each temperature zone for hot-melt […] reached 130 °C, 150 °C, 180 °C, 195 °C, 200 °C, 200 °C, 200 °C, and 200 °C and balanced for 15 min, the mixture was added to the hopper of an extruder; and the resulting solids were collected and left to cool at room temperature, and then tested for the content of the related substance D1, respectively. Table 3: Results of Prepared Samples of Crystal Forms A and B
Not detected: the detected content of related substance D1 was < 0.0045%.

[2] = Thermal and moisture stability of crystal forms (HPLC and XRPD after storage in a stability test chamber); conditions: for degradation: under the test conditions of Table 1; for crystal form change (overlay of XRPD forms): under the test conditions, FIGS. 15 and 16
Description: (§1) The crystal form of the samples was analyzed using a Bruker D8 ADVANCE or Bruker D8 Focus X-ray powder diffractometer. The samples were scanned with the 2θ scanning angle of 3° to 42°, the scanning step of 0.02°, and the scanning time of 0.05 s or 0.1 s or 0.2 s per step. The voltage and current for fluorescent tubes were 40 kV and 40 mA, respectively. During sample preparation, an appropriate amount of samples were placed on a sample tray and flattened with a glass sheet or other tools to ensure a smooth and flat surface.
Solubility and stability tests were carried out using Agilient 1260 HPLC under the following conditions: column: ZORBAX Eclipse Plus Cl8 4.6* 100 mm 3.5-Micron; flow rate: 1 mL/min; column temperature: 35 °C; injection volume: 10 µL; mobile phases: mobile phase A: 0.02 mol/L potassium dihydrogen phosphate, and mobile phase B: ACN; running time: 40 min; detector: UV at 210 nm; diluent: ACN; and injection concentration: 0.2 mg/mL.
A certain amount of samples of the crystal forms A (prepared according to the preparation method 1 of Example 1) and B (prepared according to the method of Example 2) of the compound of formula (I) were placed into a stability test chamber, and taken out for HPLC and XRPD testing after a certain period of time.
Test conditions were as follows: under open conditions at 25 °C with 60% RH (25 °C/60% RH) or at 40 °C with 75% RH (40 °C/75% RH), HPLC and XRPD was characterized after one week, two weeks, 1 month and 2 months respectively; and HPLC and XRPD were characterized under closed conditions at 80 °C for one day and under closed conditions with lighting for 10 days, respectively. Table 1: Results of Stability of Crystal Forms A and B

[3] = Stability of crystal forms in aqueous medium at 37 °C (XRPD of solids from 5 mg/mL suspension); conditions: for XRPD: 37 °C; for crystal form transformation: 24 hours
Description: as §1
Table 2: Results of Stability of Crystal Forms A and B in Aqueous Medium at 37 °C

[4] = Hygroscopic weight gain test
Description: On Days 0, 20 and 25, the samples were set out respectively, with the temperature and humidity conditions controlled to 25 ± 2 °C/75 ± 5% RH and 25 ± 2 °C/90 ± 5% RH. All samples were sampled and weighed on Day 30 to calculate the hygroscopic weight gain (%).

[5] = Impact of drying conditions on crystal form stability (XRPD); conditions: wet samples dried at 40 °C or 60 °C under vacuum, or under nitrogen at room temperature or 40 °C; 0 h to 48 h
Description: as §1

[6] = FeSSIF, 24 h (first FeSSIF line)
[7] = FeSSIF, 24 h (second FeSSIF line)

Compound: Cn1cc2cc(C(F)(F)c3nnc4ccc(-c5cnn(C6CC6)c5)nn34)c(F)cc2n1 [Crystal form A]
- Content of related substance D1 in starting material [1]: Not detected
- Content of active pharmaceutical ingredient in sample [1]: 101.6%
- Content of related substance D1 in sample [1]: 0.08%
- Degradation (%) ([2]; 25 °C/60% RH, open, 1 month): 0%
- Purity (%) ([2]; 25 °C/60% RH, open, 1 month): 99.98%
- XRPD ([2]; 25 °C/60% RH, open, 1 month): Unchanged
- Degradation (%) ([2]; 25 °C/60% RH, open, 1 week): 0%
- Purity (%) ([2]; 25 °C/60% RH, open, 1 week): 99.98%
- XRPD ([2]; 25 °C/60% RH, open, 1 week): Unchanged
- Degradation (%) ([2]; 25 °C/60% RH, open, 2 months): 0%
- Purity (%) ([2]; 25 °C/60% RH, open, 2 months): 99.98%
- XRPD ([2]; 25 °C/60% RH, open, 2 months): Unchanged
- Degradation (%) ([2]; 25 °C/60% RH, open, 2 weeks): 0%
- Purity (%) ([2]; 25 °C/60% RH, open, 2 weeks): 99.98%
- XRPD ([2]; 25 °C/60% RH, open, 2 weeks): Unchanged
- Degradation (%) ([2]; 40 °C/75% RH, open, 1 month): 0%
- Purity (%) ([2]; 40 °C/75% RH, open, 1 month): 99.98%
- XRPD ([2]; 40 °C/75% RH, open, 1 month): Unchanged
- Degradation (%) ([2]; 40 °C/75% RH, open, 1 week): 0.01%
- Purity (%) ([2]; 40 °C/75% RH, open, 1 week): 99.97%
- XRPD ([2]; 40 °C/75% RH, open, 1 week): Unchanged
- Degradation (%) ([2]; 40 °C/75% RH, open, 2 months): 0.01%
- Purity (%) ([2]; 40 °C/75% RH, open, 2 months): 99.97%
- XRPD ([2]; 40 °C/75% RH, open, 2 months): Unchanged
- Degradation (%) ([2]; 40 °C/75% RH, open, 2 weeks): 0%
- Purity (%) ([2]; 40 °C/75% RH, open, 2 weeks): 99.98%
- XRPD ([2]; 40 °C/75% RH, open, 2 weeks): Unchanged
- Degradation (%) ([2]; 80 °C, closed, 1 d): 0%
- Purity (%) ([2]; 80 °C, closed, 1 d): 99.98%
- XRPD ([2]; 80 °C, closed, 1 d): Unchanged
- Degradation (%) ([2]; Lighting control, 10 d): 0%
- Purity (%) ([2]; Lighting control, 10 d): 99.98%
- XRPD ([2]; Lighting control, 10 d): Unchanged
- Degradation (%) ([2]; Lighting, closed, 10 d): 0%
- Purity (%) ([2]; Lighting, closed, 10 d): 99.98%
- XRPD ([2]; Lighting, closed, 10 d): Unchanged
- Purity (%) ([2]; Start): 99.98%
- degradation [2]: almost no degradation
- crystal form change (overlay of XRPD forms) [2]: have not changed
- XRPD ([3]; FaSSIF, 24 h): Unchanged
- XRPD [3, 6]: Unchanged
- XRPD [3, 7]: Unchanged
- XRPD ([3]; Water, 24 h): Crystal form B
- crystal form transformation ([3]; buffers of different pHs and water): transformed to the crystal form B
- XRPD ([3]; pH 1.2 buffer, 24 h): Crystal form B
- XRPD ([3]; pH 3.0 buffer, 24 h): Crystal form B
- XRPD ([3]; pH 4.5 buffer, 24 h): Crystal form B
- XRPD ([3]; pH 6.8 buffer, 24 h): Crystal form B
- XRPD ([3]; pH 7.4 buffer, 24 h): Crystal form B
- crystal form transformation ([3]; simulated biological media): without crystal form transformation

Compound: Cn1cc2cc(C(F)(F)c3nnc4ccc(-c5cnn(C6CC6)c5)nn34)c(F)cc2n1 [Crystal form B]
- Hygroscopic weight gain (%) ([4]; 25 + 2°C/90 + 5% RH, 5 days): 1%
- Hygroscopic weight gain (%) ([4]; 25 + 2°C/90 + 5% RH, 10 days): 1%
- Hygroscopic weight gain (%) ([4]; 25 + 2°C/90 + 5% RH, 30 days): 1%
- Hygroscopic weight gain (%) ([4]; 25 ± 2°C/75 + 5% RH, 5 days): 1%
- Hygroscopic weight gain (%) ([4]; 25 ± 2°C/75 + 5% RH, 10 days): 1%
- Hygroscopic weight gain (%) ([4]; 25 ± 2°C/75 + 5% RH, 30 days): 1%
- hygroscopic weight gain ([4]; high humidity conditions for 5 days, 10 days and 30 days (text summary; less than 2%, slight hygroscopicity)): approximately 1%
- Content of related substance D1 in starting material [1]: Not detected
- Content of active pharmaceutical ingredient in sample [1]: 101.8%
- Content of related substance D1 in sample [1]: 0.05%
- Degradation (%) ([2]; 25 °C/60% RH, open, 1 month): 0%
- Purity (%) ([2]; 25 °C/60% RH, open, 1 month): 99.98%
- XRPD ([2]; 25 °C/60% RH, open, 1 month): Unchanged
- Degradation (%) ([2]; 25 °C/60% RH, open, 1 week): 0%
- Purity (%) ([2]; 25 °C/60% RH, open, 1 week): 99.98%
- XRPD ([2]; 25 °C/60% RH, open, 1 week): Unchanged
- Degradation (%) ([2]; 25 °C/60% RH, open, 2 months): 0.01%
- Purity (%) ([2]; 25 °C/60% RH, open, 2 months): 99.97%
- XRPD ([2]; 25 °C/60% RH, open, 2 months): Unchanged
- Degradation (%) ([2]; 25 °C/60% RH, open, 2 weeks): 0%
- Purity (%) ([2]; 25 °C/60% RH, open, 2 weeks): 99.98%
- XRPD ([2]; 25 °C/60% RH, open, 2 weeks): Unchanged
- Degradation (%) ([2]; 40 °C/75% RH, open, 1 month): 0%
- Purity (%) ([2]; 40 °C/75% RH, open, 1 month): 99.98%
- XRPD ([2]; 40 °C/75% RH, open, 1 month): Unchanged
- Degradation (%) ([2]; 40 °C/75% RH, open, 1 week): 0.01%
- Purity (%) ([2]; 40 °C/75% RH, open, 1 week): 99.97%
- XRPD ([2]; 40 °C/75% RH, open, 1 week): Unchanged
- Degradation (%) ([2]; 40 °C/75% RH, open, 2 months): 0.02%
- Purity (%) ([2]; 40 °C/75% RH, open, 2 months): 99.96%
- XRPD ([2]; 40 °C/75% RH, open, 2 months): Unchanged
- Degradation (%) ([2]; 40 °C/75% RH, open, 2 weeks): -0.01%
- Purity (%) ([2]; 40 °C/75% RH, open, 2 weeks): 99.99%
- XRPD ([2]; 40 °C/75% RH, open, 2 weeks): Unchanged
- Degradation (%) ([2]; 80 °C, closed, 1 d): 0.01%
- Purity (%) ([2]; 80 °C, closed, 1 d): 99.97%
- XRPD ([2]; 80 °C, closed, 1 d): Unchanged
- Degradation (%) ([2]; Lighting control, 10 d): 0%
- Purity (%) ([2]; Lighting control, 10 d): 99.98%
- XRPD ([2]; Lighting control, 10 d): Unchanged
- Degradation (%) ([2]; Lighting, closed, 10 d): 0%
- Purity (%) ([2]; Lighting, closed, 10 d): 99.98%
- XRPD ([2]; Lighting, closed, 10 d): Unchanged
- Purity (%) ([2]; Start): 99.98%
- degradation [2]: almost no degradation
- crystal form change (overlay of XRPD forms) [2]: have not changed
- XRPD ([3]; FaSSIF, 24 h): Unchanged
- XRPD [3, 6]: Unchanged
- XRPD [3, 7]: Unchanged
- XRPD ([3]; Water, 24 h): Unchanged
- crystal form change ([3]; all media): no change
- XRPD ([3]; pH 1.2 buffer, 24 h): Unchanged
- XRPD ([3]; pH 3.0 buffer, 24 h): Unchanged
- XRPD ([3]; pH 4.5 buffer, 24 h): Unchanged
- XRPD ([3]; pH 6.8 buffer, 24 h): Unchanged
- XRPD ([3]; pH 7.4 buffer, 24 h): Unchanged
- crystal form during drying (XRPD) [5]: no other crystal forms appear during drying
